These results are taken from patent publication US20250302862A1, “SMALL RNA DRUG FOR INHIBITING ACTIVITY OF CANCER CELLS” (Institute of Basic Medical Sciences Chinese Academy of …, priority 2022, published 2025).

For data set [1], the system named is cyclooxygenase-2 (COX2). The experiment in a line: COX2 mRNA (RT-PCR/QPCR) and protein (western blot) in H460 cells. In kind it is cell-based, human. Particulars: final concentration 10 nmol/L. As to the method:
Method for cell experiment: H460 cells with a cell density of more than 90% in 10 cm2 dishes were plated in 12-well plates (2 plates) according to the cell growth rate, and transfected after 12 h, and the groups were divided as follows: • blank control group (4 wells): 200 uL of opti-MEM per well • negative control group (NC group) and experimental group (3 wells each): the system of each well was as follows • A. 100 uL of opti-MEM and 2 uL of iMax were mixed well for 5 min • B. 100 uL of opti-MEM and 5 uL of small RNA (final concentration 10 nmol/L) were mixed well • C. solution A and solution B were mixed well and let stand for 15 min, and then was added to each well at a 200 uL system • Note: 100 uL of nuclease-free water was added to 2 nmol of small RNA dry powder for dissolution at a storage concentration of 20 umol/L
Cells were collected with Trizo after 24 h of incubation and RNA was extracted. Cells on another plate were collected with RIPA lysis buffer after 48 h of incubation and protein was extracted.
(§1) The relative amount of COX-2 mRNA in the RNA in Method 1 and Method 2 was measured by RT-PCR and QPCR technologies.
(§2) The relative amount of COX-2 protein in the protein in Method 1 and Method 2 was measured by western blot technology.

Data set [2] concerns cyclooxygenase-2 (COX2). The data set can be described thus: Dual luciferase reporter assay in 293T cells. In kind it is cell-based. Here is the method: The targeting effect of HQi-sRNA-2 obtained from medicinal plants by the inventors on cyclooxygenase-2 (COX2) was studied by a dual luciferase reporter detection system, so as to study its potential to exert lipid-lowering effects.
293T cells were cultured and transfected with the HQi-sRNA-2 to be screened and NC-sRNA, respectively, and then with the dual luciferase reporter plasmid of COX2. The dual luciferase activity was detected after 48 h.

In data set [3] the test system is cyclooxygenase-2 (COX2). The experiment in a line: COX2 mRNA and protein in lung tissues of mice with lung cancer. The class given is in vivo, mouse. Conditions: lung tissues of KP mice, 10 nmol daily by gavage for one month.
Excerpt: Methods for animal experiment: the mouse model of primary lung cancer was KrasLSL-G12Dp53fl/fl (KP).
Mice were weighed and assigned to the NC group and HQi-sRNA-2 group randomly. The NC group was the negative control, in which a sphingosine(d18:1)-NC-sRNA herbal medicine delivery system was constructed from NC-sRNA. The HQi-sRNA-2 group was the experimental group, in which a sphingosine(d18:1)-HQi-sRNA-2 herbal medicine delivery system was constructed from HQi-sRNA-2.
(§3) The herbal medicine delivery system was constructed by heating and mixing 10 nmol of sRNA, 100 ug of sphingosine(d18:1) and 300 ul of sterile enzyme-free water in a water bath at 90° C. for 15 minutes.
(§4) Each mouse with a uniform body weight was dosed by gavage. Each mouse was given 10 nmol of HQi-sRNA-2 mimic daily by gavage for one month.
RNA and protein were extracted from the right lung of all mice.
as §1, §2

Data set [4] is described as follows: Body weight of mice with primary lung cancer. In kind it is in vivo, mouse. Particulars: KP mice, 10 nmol daily by gavage for one month, sphingosine(d18:1) delivery system, vs NC group.
Excerpt: (§5) The mouse model of primary lung cancer was Kras^LSL-G12Dp53^fl/fl (KP).
(§6) Mice were weighed and assigned to the negative control group (NC group) and HQi-sRNA-2 group randomly. The NC group was the negative control, in which a sphingosine(d18:1)-NC-sRNA herbal medicine delivery system was constructed from NC-sRNA. The HQi-sRNA-2 group was the experimental group, in which a sphingosine(d18:1)-HQi-sRNA-2 herbal medicine delivery system was constructed from HQi-sRNA-2.
as §3, §4
The body weight of each mouse was recorded, the curve of body weight over time was plotted, and statistical analysis was performed.

Data set [5] concerns primary lung cancer Kras^LSL-G12Dp53^fl/fl (KP) mouse model. The data set can be described thus: Tumor tissue apoptosis, caspase-3 immunohistochemistry of lung sections. The class given is in vivo. Conditions: 10 nmol daily by gavage for one month, vs NC group.
Excerpt: as §5, §6, §3, §4
The lungs of mice were collected to prepare pathological sections. The left lung was collected and sliced at the largest surface for every mouse, and subjected to immunohistochemistry of caspase-3. The area of positive cell population in the whole pathological section was counted, the tumor burden was calculated, and statistical analysis was performed.

For data set [6], the system named is pancreatic cancer ASPC-1 cells. The data set can be described thus: Cell invasion (Matrigel Transwell). Conditions: 100 nmol/L, jetPRIME, 72 h. In kind it is cell-based, human. As to the method:
1) Matrigel basement membrane matrix was thawed on crushed ice one night before and diluted with serum-free medium to a final concentration of 200-300 ug/mL. 100 uL of the diluted Matrigel was added to each upper chamber, let stand at 37° C. for 30 min, and the supernatant was aspirated. ASPC-1 cells and BXPC-3 cells with a cell density of more than 90% in 10 cm^2 dishes were digested and resuspended with 1 mL of serum-free medium and counted. 100,000 cells (100 uL) were plated in the upper chamber, and complete medium with 10% FBS was added to the lower chamber of each chamber. Transfection was performed after 12 h, and the groups (3 wells per group) were divided as follows: • blank control group: 10 uL of jetPRIME Buffer • negative control group (NC group) and experimental group: 10 uL of jetPRIME Buffer was mixed well with 0.5 uL of jetPRIME reagent and 0.5 uL of small RNA and let stand for 15 min, and then was added to each well at a 10 uL system (final concentration 100 nmol/L) • Note: 100 uL of nuclease-free water was added to 2 nmol of small RNA dry powder for dissolution at a storage concentration of 20 umol/L
After 72 h, the medium in upper and lower chambers was discarded. The cells were fixed with paraformaldehyde at room temperature for 15 min, stained with 0.1% crystal violet at room temperature for 15 min, and rinsed with PBS. […]

For “HQi-sRNA-2: small RNA derived from Scutellaria baicalensis, sequence AUGGUUCGAUUCCGGAGAGGG (listed as RNA, chemistry not given here)”, the “mRNA level of COX2” value in the data set with cyclooxygenase-2 (COX2) [1] (24 h, RT-PCR and QPCR) is “significantly down-regulate”; with cyclooxygenase-2 (COX2) [3] (RT-PCR and QPCR) it was “significantly down-regulate”. For the same substance, the “protein level of COX2” value was “significantly down-regulate” in the data set on cyclooxygenase-2 (COX2) [1] (48 h, western blot) and “significantly down-regulate” in the data set with cyclooxygenase-2 (COX2) [3] (western blot). The luciferase activity entry in the data set on cyclooxygenase-2 (COX2) [2] (COX2 dual luciferase reporter plasmid, 48 h, compared with NC-sRNA) is on record as “significantly reduce”; in the data set with cyclooxygenase-2 (COX2) [2] (base sequence of the binding site mutated), “restored”. For the same substance, the “body weight of mice with primary lung cancer” value in data set [4] was “significantly maintained”. The “tumor tissue apoptosis of mice with primary lung cancer” value in data set [5] is “significantly increased”.
As for “MDM-sRNA-39: small RNA derived from Maytenus hookeri, sequence GGGAUUGUAGUUCAAUUGGUCAGAGCACC (listed as RNA, chemistry not given here)”, the cell invasion result in data set [6] is “inhibits”.
